Test results: US7262185B2, “Benzazepine derivative, process for producing the same, and use” (Takeda Chemical Industries Ltd., priority 2001, dated 2007)

CCCCOCCOc1ccc(-c2ccc3c(c2)C=C(C(=O)Nc2ccc([C@H](O)c4cccc[n+]4[O-])cc2)CCN3CC2CC2)cc1 [Compound 84, 7-[4-(2-butoxyethoxy)phenyl]-1-cyclopropylmethyl-N-[4-[(S)-hydroxy(1-oxidopyridin-2-yl)methyl]phenyl]-2,3-dihydro-1H-1-benzazepine-4-carboxamide]
melting point: 85 to 88 °C

CCCCOCCOc1ccc(-c2ccc3c(c2)C=C(C(=O)Nc2ccc([C@H](O)c4cccc[n+]4[O-])cc2)CCN3Cc2nccs2)cc1 [Compound 86, 7-[4-(2-butoxyethoxy)phenyl]-N-[4-[(S)-hydroxy(1-oxidopyridin-2-yl)methyl]phenyl]-1-(thiazol-2-ylmethyl)-2,3-dihydro-1H-1-benzazepine-4-carboxamide]
melting point: 164 to 165 °C

CCCCOCCOc1ccc(-c2ccc3c(c2)C=C(C(=O)Nc2ccc([C@H](O)c4cccc[n+]4[O-])cc2)CCN3Cc2ccnn2C)cc1 [Compound 89, 7-[4-(2-butoxyethoxy)phenyl]-N-[4-[(S)-hydroxy(1-oxidopyridin-2-yl)methyl]phenyl]-1-(1-methylpyrazol-5-ylmethyl)-2,3-dihydro-1H-1-benzazepine-4-carboxamide]
melting point: 109 to 111 °C

CCCCOCCOc1ccc(-c2ccc3c(c2)C=C(C(=O)Nc2ccc([C@H](O)c4cccc[n+]4[O-])cc2)CCN3Cc2ccccc2)cc1 [Compound 90, 1-benzyl-7-[4-(2-butoxyethoxy)phenyl]-N-[4-[(S)-hydroxy(1-oxidopyridin-2-yl)methyl]phenyl]-2,3-dihydro-1H-1-benzazepine-4-carboxamide]
melting point: 89 to 93 °C

CCCCOCCOc1ccc(-c2ccc3c(c2)C=C(C(=O)Nc2ccc([C@H](O)c4cccc[n+]4[O-])cc2)CCN3Cc2cc(C)ns2)cc1 [Compound 92, 7-[4-(2-butoxyethoxy)phenyl]-1-(3-methyl-isothiazol-5-ylmethyl)-N-[4-[(S)-hydroxy(1-oxidopyridin-2-yl)methyl]phenyl]-2,3-dihydro-1H-1-benzazepine-4-carboxamide]
melting point: 93 to 96 °C

CCCCOCCOc1ccc(-c2ccc3c(c2)C=C(C(=O)Nc2ccc([C@H](O)c4ccccn4)cc2)CCN3S(C)(=O)=O)cc1 [Compound 93, 7-[4-(2-butoxyethoxy)phenyl]-N-[4-[(S)-hydroxy(2-pyridyl)methyl]phenyl]-1-methanesulfonyl-2,3-dihydro-1H-1-benzazepine-4-carboxamide]
melting point: 158 to 160 °C

CCCCOCCOc1ccc(-c2ccc3c(c2)C=C(C(=O)Nc2ccc([C@H](O)c4cccc[n+]4[O-])cc2)CCN3S(C)(=O)=O)cc1 [Compound 94, 7-[4-(2-butoxyethoxy)phenyl]-N-[4-[(S)-hydroxy(1-oxidopyridin-2-yl)methyl]phenyl]-1-methanesulfonyl-2,3-dihydro-1H-1-benzazepine-4-carboxamide]
melting point: 118 to 120 °C

CCCCOCCOc1ccc(-c2ccc3c(c2)C=C(C(=O)Nc2ccc(C(O)c4cccc(C)[n+]4[O-])cc2)CCN3C(=O)C(F)(F)F)cc1 (centres unmarked) [Compound 96, 7-[4-(2-butoxyethoxy)phenyl]-N-[4-[hydroxy(6-methyl-1-oxidopyridin-2-yl)methyl]phenyl]-1-trifluoroacetyl-2,3-dihydro-1H-1-benzazepine-4-carboxamide]
melting point: 170 to 173 °C

CCCCOCCOc1ccc(-c2ccc3c(c2)C=C(C(=O)Nc2ccc(C(O)c4cccc(C)[n+]4[O-])cc2)CCN3)cc1 (centres unmarked) [Compound 97, 7-[4-(2-butoxyethoxy)phenyl]-N-[4-[hydroxy(6-methyl-1-oxidopyridin-2-yl)methyl]phenyl]-2,3-dihydro-1H-1-benzazepine-4-carboxamide]
melting point: 175 to 177 °C

CCCCOCCOc1ccc(-c2ccc3c(c2)C=C(C(=O)Nc2ccc(C(O)c4cccc(C)[n+]4[O-])cc2)CCN3CC(C)C)cc1 (centres unmarked) [Compound 98, 7-[4-(2-butoxyethoxy)phenyl]-N-[4-[hydroxy(6-methyl-1-oxidopyridin-2-yl)methyl]phenyl]-1-isobutyl-2,3-dihydro-1H-1-benzazepine-4-carboxamide]
melting point: 114 to 116 °C

CCCCOCCOc1ccc(-c2ccc3c(c2)C=C(C(=O)Nc2ccc(C(O)c4c(C)ccc[n+]4[O-])cc2)CCN3C(=O)C(F)(F)F)cc1 (centres unmarked) [Compound 100, 7-[4-(2-butoxyethoxy)phenyl]-N-[4-[hydroxy(3-methyl-1-oxidopyridin-2-yl)methyl]phenyl]-1-trifluoroacetyl-2,3-dihydro-1H-1-benzazepine-4-carboxamide]
melting point: 109 to 112 °C

CCCCOCCOc1ccc(-c2ccc3c(c2)C=C(C(=O)Nc2ccc(C(O)c4ccc(C)cn4)cc2)CCN3C(=O)C(F)(F)F)cc1 (centres unmarked) [Compound 103, 7-[4-(2-butoxyethoxy)phenyl]-N-[4-[hydroxy(5-methylpyridin-2-yl)methyl]phenyl]-1-trifluoroacetyl-2,3-dihydro-1H-1-benzazepine-4-carboxamide]
melting point: 110 to 113 °C

CCCCOCCOc1ccc(-c2ccc3c(c2)C=C(C(=O)Nc2ccc(C(O)c4ccc(Cl)cn4)cc2)CCN3C(=O)C(F)(F)F)cc1 (centres unmarked) [Compound 107, 7-[4-(2-butoxyethoxy)phenyl]-N-[4-[hydroxy(5-chloropyridin-2-yl)methyl]phenyl]-1-trifluoroacetyl-2,3-dihydro-1H-1-benzazepine-4-carboxamide]
melting point: 144 to 146 °C

CCCCOCCOc1ccc(-c2ccc3c(c2)C=C(C(=O)Nc2ccc(C(O)c4ccc(Cl)c[n+]4[O-])cc2)CCN3C(=O)C(F)(F)F)cc1 (centres unmarked) [Compound 108, 7-[4-(2-butoxyethoxy)phenyl]-N-[4-[hydroxy(5-chloro-1-oxidopyridin-2-yl)methyl]phenyl]-1-trifluoroacetyl-2,3-dihydro-1H-1-benzazepine-4-carboxamide]
melting point: 200 to 203 °C

CCCCOCCOc1ccc(-c2ccc3c(c2)C=C(C(=O)Nc2ccc(C(O)c4ccc(Cl)c[n+]4[O-])cc2)CCN3CC(C)C)cc1 (centres unmarked) [Compound 110, 7-[4-(2-butoxyethoxy)phenyl]-N-[4-[hydroxy(5-chloro-1-oxidopyridin-2-yl)methyl]phenyl]-1-isobutyl-2,3-dihydro-1H-1-benzazepine-4-carboxamide]
melting point: 137 to 139 °C

CCCCOCCOc1ccc(-c2ccc3c(c2)C=C(C(=O)Nc2ccc(C(O)c4ncccc4OCCC)cc2)CCN3C(=O)C(F)(F)F)cc1 (centres unmarked) [Compound 111, 7-[4-(2-butoxyethoxy)phenyl]-N-[4-[hydroxy(3-propoxypyridin-2-yl)methyl]phenyl]-1-trifluoroacetyl-2,3-dihydro-1H-1-benzazepine-4-carboxamide]
melting point: 154 to 157 °C

CCCCOCCOc1ccc(-c2ccc3c(c2)C=C(C(=O)Nc2ccc(C(O)c4c(OCCC)ccc[n+]4[O-])cc2)CCN3C(=O)C(F)(F)F)cc1 (centres unmarked) [Compound 112, 7-[4-(2-butoxyethoxy)phenyl]-N-[4-[hydroxy(1-oxido-3-propoxypyridin-2-yl)methyl]phenyl]-1-trifluoroacetyl-2,3-dihydro-1H-1-benzazepine-4-carboxamide]
melting point: 144 to 146 °C

CCCCOCCOc1ccc(-c2ccc3c(c2)C=C(C(=O)Nc2ccc(C(O)c4c(OCCC)ccc[n+]4[O-])cc2)CCN3)cc1 (centres unmarked) [Compound 113, 7-[4-(2-butoxyethoxy)phenyl]-N-[4-[hydroxy(1-oxido-3-propoxypyridine-2-yl)methyl]phenyl]-2,3-dihydro-1H-1-benzazepine-4-carboxamide]
melting point: 148 to 149 °C

CCCCOCCOc1ccc(-c2ccc3c(c2)C=C(C(=O)Nc2ccc(CSc4nncs4)cc2)CCN3CC(C)C)cc1 [Compound 115, 7-[4-(2-butoxyethoxy)phenyl]-N-[4-(1,3,4-thiadiazol-2-ylthiomethyl)phenyl]-1-isobutyl-2,3-dihydro-1H-1-benzazepine-4-carboxamide]
melting point: 77 to 79 °C

CCCCOCCOc1ccc(-c2ccc3c(c2)C=C(C(=O)Nc2ccc(CSc4nnc(C)o4)cc2)CCN3CC(C)C)cc1 [Compound 116, 7-[4-(2-butoxyethoxy)phenyl]-N-[4-(5-methyl-1,3,4-oxadiazol-2-ylthiomethyl)phenyl]-1-isobutyl-2,3-dihydro-1H-1-benzazepine-4-carboxamide]
melting point: 107 to 109 °C

CCCCOCCOc1ccc(-c2ccc3c(c2)C=C(C(=O)Nc2ccc(C[S+]([O-])c4nncn4C)cc2)CCN3CC(C)C)cc1 (centres unmarked) [Compound 118, 7-[4-(2-butoxyethoxy)phenyl]-N-[4-(4-methyl-4H-1,2,4-triazol-3-ylsulfinylmethyl)phenyl]-1-isobutyl-2,3-dihydro-1H-1-benzazepine-4-carboxamide]
melting point: 87 to 89 °C

CCCCOCCOc1ccc(-c2ccc3c(c2)C=C(C(=O)Nc2ccc([S+]([O-])Cc4ncnn4C)cc2)CCN3CC(C)C)cc1 (centres unmarked) [Compound 124, 7-[4-(2-butoxyethoxy)phenyl]-N-[4-(1-methyl-1H-1,2,4-triazol-5-ylmethylsulfinyl)phenyl]-1-isobutyl-2,3-dihydro-1H-1-benzazepine-4-carboxamide]
melting point: 135 to 138 °C

CCCCOCCOc1ccc(-c2ccc3c(c2)C=C(C(=O)Nc2ccc([S+]([O-])Cc4ncn(C)n4)cc2)CCN3CC(C)C)cc1 (centres unmarked) [Compound 126, 7-[4-(2-butoxyethoxy)phenyl]-1-isobutyl-N-[4-(1-methyl-1H-1,2,4-triazol-3-ylmethylsulfinyl)phenyl]-2,3-dihydro-1H-benzazepine-4-carboxamide]
melting point: 112 to 114 °C

CCCCOCCOc1ccc(-c2ccc3c(c2)C=C(C(=O)Nc2ccc(S(=O)(=O)Cc4ncn(C)n4)cc2)CCN3CC(C)C)cc1 [Compound 127, 7-[4-(2-butoxyethoxy)phenyl]-1-isobutyl-N-[4-(1-methyl-1H-1,2,4-triazol-3-ylmethylsulfonyl)phenyl]-2,3-dihydro-1H-benzazepine-4-carboxamide]
melting point: 205 to 208 °C

CCCCOCCOc1ccc(-c2ccc3c(c2)C=C(C(=O)Nc2ccc(SCc4ncon4)cc2)CCN3CC(C)C)cc1 [Compound 128, 7-[4-(2-butoxyethoxy)phenyl]-1-isobutyl-N-[4-(1,2,4-oxadiazol-3-ylmethylthio)phenyl]-2,3-dihydro-1H-benzazepine-4-carboxamide]
melting point: 112 to 115 °C

CCCCOCCOc1ccc(-c2ccc3c(c2)C=C(C(=O)Nc2ccc([S+]([O-])Cc4ncon4)cc2)CCN3CC(C)C)cc1 (centres unmarked) [Compound 129, 7-[4-(2-butoxyethoxy)phenyl]-1-isobutyl-N-[4-(1,2,4-oxadiazol-3-ylmethylsulfinyl)phenyl]-2,3-dihydro-1H-benzazepine-4-carboxamide]
melting point: 142 to 144 °C
